# Measured values taken from publication PMC5796268, “Affinity Purification and Comparative Biosensor Analysis of Citrulline-Peptide-Specific Antibodies in Rheumatoid Arthritis” (International Journal of Molecular Sciences, 2018).
# Tested on: citrulline-containing peptides / affinity-purified ACPA IgG
# Assay: ELISA cross-reaction of affinity-purified ACPA IgG fractions with Cit-peptides
# Assay type: binding, human
# Conditions: ACPA 0.1 mg/mL, OD ratio Cit/Arg peptide
# Description: To see if the affinity-purified anti-peptide antibodies were able to recognize a different peptide, ELISA plates were coated with the individual peptides directly (fibrin, enolase, and EBNA-2) or indirectly, using neutravidin-coated plates and biotinylated peptides (filaggrin, collagen II, or vimentin) and the binding of the affinity-purified IgG fractions was monitored (Figure 2).
# Figure 2 Reactivity of affinity-purified IgG fractions with the relevant and irrelevant citrulline-containing peptides. OD ratios that are OD with Cit/OD with Arg-containing peptides are shown. Cut-off values for each Cit- and Arg-containing peptide pair were calculated from OD indexes of 120 healthy samples (the means of OD indexes + 2 × SD). These were below 1.5 for all peptides. Results of a typical experiment.
# ELISA was used to determine serum IgG ACPA concentrations and to test ACPA cross-reactions. The biotinylated, citrulline- or arginine-containing filaggrin19, vimentin, collagen II and the multi-epitope peptides were added at 1 µg/mL to the Medisorp plates (Greiner Bio-One GmbH, Kremsmünster, Germany) pre-coated with 5 µg/mL Neutravidin (Pierce Biotechnology, Rockford, IL, USA) overnight, at 4 °C, and then the plates were incubated for 1 h at 37 °C. […]
# Serum samples were diluted 1:100. […] Plates were read at 450 nm with THERMO Multiscan EX ELISA-reader.
substance,measurement,value
"H-Ttds-AXAXGSGSGXGXG-NH2 [multi-epitope, novel peptide consisting of two-two copies of Ala-Cit and Cit-Gly motifs separated with a neutral spacer, SGSG]",binding of peptide to other affinity-purified ACPA IgG,"bound to almost all other ACPA IgG, fibrin β was the exception"
